Laboratory results as given in ChEMBL document CHEMBL4219034, “Synthesis, antimicrobial activity, structure-activity relationship and cytotoxic studies of a new series of functionalized (Z)-3-(2-oxo-2-substituted ethylidene)-3,4-dihydro-2H-benzo[b][1,4]oxazin-2-ones” (Bioorg Med Chem Lett, 2017).
≈ marks a conversion by molar mass, not a printed value. Calls of active or inactive are those of the source. No cut-off for these calls is given here.

Tests used:
Format in all cases: functional
Fusarium oxysporum [1] = assay: Antifungal activity against Fusarium oxysporum ATCC 62506 at 100 ug/ml incubated for 72 hrs by agar disc diffusion assay; settings: for zone of inhibition at 100 µg/mL: ATCC 62506, 72 h, read-out: IZ
Talaromyces funiculosus [2] = assay: Antifungal activity against Penicillium funiculosum ATCC 11797 at 100 ug/ml incubated for 72 hrs by agar disc diffusion assay; settings: for zone of inhibition at 100 µg/mL: ATCC 11797, 72 h, read-out: IZ
Streptomyces griseus [3] = assay: Antibacterial activity against Streptomyces griseus MTCC 4734 at 100 ug/ml incubated for 12 hrs by agar disc diffusion assay; settings: for zone of inhibition at 100 µg/mL: MTCC 4734, 12 h, read-out: IZ
Fusarium oxysporum [4] = assay: Antifungal activity against Fusarium oxysporum ATCC 62506 incubated for 24 hrs by serial dilution method
Talaromyces funiculosus [5] = assay: Antifungal activity against Penicillium funiculosum ATCC 11797 incubated for 24 hrs by serial dilution method
Bacillus subtilis [6] = assay: Antibacterial activity against Bacillus subtilis MTCC 10619 at 100 ug/ml incubated for 12 hrs by agar disc diffusion assay; settings: for zone of inhibition at 100 µg/mL: MTCC 10619, 12 h, read-out: IZ
Streptomyces griseus [7] = assay: Antibacterial activity against Streptomyces griseus MTCC 4734 incubated for 24 hrs by serial dilution method
Staphylococcus aureus [8] = assay: Antibacterial activity against Staphylococcus aureus MTCC 3381 at 100 ug/ml incubated for 12 hrs by agar disc diffusion assay; settings: for zone of inhibition at 100 µg/mL: MTCC 3381, 12 h, read-out: IZ
Staphylococcus aureus [9] = assay: Antibacterial activity against Staphylococcus aureus MTCC 3381 incubated for 24 hrs by serial dilution method
Trichoderma reesei [10] = assay: Antifungal activity against Trichoderma reesei ATCC 13631 incubated for 24 hrs by serial dilution method
Bacillus subtilis [11] = assay: Antibacterial activity against Bacillus subtilis MTCC 10619 incubated for 24 hrs by serial dilution method
Aspergillus niger [12] = assay: Antifungal activity against Aspergillus niger ATCC 9029 at 100 ug/ml incubated for 72 hrs by agar disc diffusion assay; settings: for zone of inhibition at 100 µg/mL: ATCC 9029, 72 h, read-out: IZ
Escherichia coli [13] = assay: Antibacterial activity against Escherichia coli MTCC 443 at 100 ug/ml incubated for 12 hrs by agar disc diffusion assay; settings: for zone of inhibition at 100 µg/mL: MTCC 443, 12 h, read-out: IZ
Escherichia coli [14] = assay: Antibacterial activity against Escherichia coli MTCC 443 incubated for 24 hrs by serial dilution method
Trichoderma reesei [15] = assay: Antifungal activity against Trichoderma reesei ATCC 13631 at 100 ug/ml incubated for 72 hrs by agar disc diffusion assay; settings: for zone of inhibition at 100 µg/mL: ATCC 13631, 72 h, read-out: IZ
Aspergillus niger [16] = assay: Antifungal activity against Aspergillus niger ATCC 9029 incubated for 24 hrs by serial dilution method

SMILES	inhibition zone (IZ) (Fusarium oxysporum [1])	inhibition zone (IZ) (Talaromyces funiculosus [2])	inhibition zone (IZ) (Streptomyces griseus [3])	MIC (Fusarium oxysporum [4])	MIC (Talaromyces funiculosus [5])	inhibition zone (IZ) (Bacillus subtilis [6])	MIC (Streptomyces griseus [7])	inhibition zone (IZ) (Staphylococcus aureus [8])	MIC (Staphylococcus aureus [9])	MIC (Bacillus subtilis [11])	zone of inhibition at 100 µg/mL (Aspergillus niger [12]) [mm]	inhibition zone (IZ) (Escherichia coli [13])	MIC (Escherichia coli [14])	MIC (Aspergillus niger [16]; ATCC 9029, 24 h) [µg/mL]	MIC (Trichoderma reesei [10])	zone of inhibition at 100 µg/mL (Escherichia coli [13]) [mm]	MIC (Escherichia coli [14]; MTCC 443, 24 h) [µg/mL]	inhibition zone (IZ) (Trichoderma reesei [15])	zone of inhibition at 100 µg/mL (Streptomyces griseus [3]) [mm]	MIC (Streptomyces griseus [7]; MTCC 4734, 24 h) [µg/mL]	further results
O=C1Oc2ccccc2N/C1=C\C(=O)c1cccc2ccccc12	inactive	inactive	inactive	inactive	inactive	inactive	inactive	inactive	inactive	inactive	4	inactive	inactive	100 (≈ 317 µM)	–	–	–	–	–	–	MIC (Trichoderma reesei [10]; ATCC 13631, 24 h): 100 µg/mL (≈ 317 µM); zone of inhibition at 100 µg/mL (Trichoderma reesei [15]): 4 mm
O=C1Oc2ccccc2N/C1=C\C(=O)c1ccc(-c2ccccc2)cc1	inactive	–	inactive	inactive	–	inactive	inactive	inactive	inactive	inactive	4	–	–	100 (≈ 293 µM)	inactive	14	25 (≈ 73.2 µM)	inactive	–	–	zone of inhibition at 100 µg/mL (Talaromyces funiculosus [2]): 14 mm; MIC (Talaromyces funiculosus [5]; ATCC 11797, 24 h): 25 µg/mL (≈ 73.2 µM)
CC(=O)N1CCN(c2ccc(OCC3COC(Cn4ccnc4)(c4ccc(Cl)cc4Cl)O3)cc2)CC1 (stereo not drawn) [KETOCONAZOLE]	–	–	–	–	–	–	–	–	–	–	18	–	–	12.5 (≈ 23.5 µM)	–	–	–	–	–	–	zone of inhibition at 100 µg/mL (Fusarium oxysporum [1]): 20 mm; zone of inhibition at 100 µg/mL (Talaromyces funiculosus [2]): 22 mm; MIC (Fusarium oxysporum [4]; ATCC 62506, 24 h): 12.5 µg/mL (≈ 23.5 µM); MIC (Talaromyces funiculosus [5]; ATCC 11797, 24 h): 25 µg/mL (≈ 47 µM); MIC (Trichoderma reesei [10]; ATCC 13631, 24 h): 25 µg/mL (≈ 47 µM); zone of inhibition at 100 µg/mL (Trichoderma reesei [15]): 24 mm
CC1(C)S[C@@H]2[C@H](NC(=O)[C@H](N)c3ccccc3)C(=O)N2[C@H]1C(=O)O [AMPICILLIN]	–	–	–	–	–	–	–	–	–	–	–	–	–	–	–	24	12.5 (≈ 35.8 µM)	–	20	12.5 (≈ 35.8 µM)	zone of inhibition at 100 µg/mL (Bacillus subtilis [6]): 18 mm; zone of inhibition at 100 µg/mL (Staphylococcus aureus [8]): 11 mm; MIC (Staphylococcus aureus [9]; MTCC 3381, 24 h): 12.5 µg/mL (≈ 35.8 µM); MIC (Bacillus subtilis [11]; MTCC 10619, 24 h): 25 µg/mL (≈ 71.5 µM)
Cc1ccc2c(c1)N/C(=C\C(=O)c1ccc(-c3ccccc3)cc1)C(=O)O2	inactive	inactive	–	inactive	inactive	–	–	–	–	–	–	–	–	–	inactive	20	25 (≈ 70.3 µM)	inactive	18	12.5 (≈ 35.2 µM)	zone of inhibition at 100 µg/mL (Bacillus subtilis [6]): 12 mm; zone of inhibition at 100 µg/mL (Staphylococcus aureus [8]): 11 mm; MIC (Staphylococcus aureus [9]; MTCC 3381, 24 h): 12.5 µg/mL (≈ 35.2 µM); MIC (Bacillus subtilis [11]; MTCC 10619, 24 h): 25 µg/mL (≈ 70.3 µM); inhibition zone (IZ) (Aspergillus niger [12]): inactive; MIC (Aspergillus niger [16]): inactive
Cc1ccc2c(c1)N/C(=C\C(=O)c1ccc(C3CCCCC3)cc1)C(=O)O2	–	inactive	inactive	–	inactive	inactive	inactive	inactive	inactive	inactive	–	inactive	inactive	100 (≈ 277 µM)	inactive	–	–	inactive	–	–	zone of inhibition at 100 µg/mL (Fusarium oxysporum [1]): 12 mm; MIC (Fusarium oxysporum [4]; ATCC 62506, 24 h): 50 µg/mL (≈ 138 µM); inhibition zone (IZ) (Aspergillus niger [12]): inactive
O=C1Oc2cc([N+](=O)[O-])ccc2N/C1=C\C(=O)c1ccc(-c2ccccc2)cc1	–	inactive	–	–	inactive	–	–	inactive	inactive	–	–	–	–	–	inactive	12	25 (≈ 64.7 µM)	inactive	10	50 (≈ 129 µM)	zone of inhibition at 100 µg/mL (Fusarium oxysporum [1]): 18 mm; MIC (Fusarium oxysporum [4]; ATCC 62506, 24 h): 25 µg/mL (≈ 64.7 µM); zone of inhibition at 100 µg/mL (Bacillus subtilis [6]): 8 mm; MIC (Bacillus subtilis [11]; MTCC 10619, 24 h): 100 µg/mL (≈ 259 µM); inhibition zone (IZ) (Aspergillus niger [12]): inactive; MIC (Aspergillus niger [16]): inactive
Cc1ccc2c(c1)N/C(=C\C(=O)C1CC1)C(=O)O2	inactive	inactive	–	inactive	inactive	inactive	–	–	–	inactive	–	–	–	–	inactive	8	100 (≈ 411 µM)	inactive	6	100 (≈ 411 µM)	zone of inhibition at 100 µg/mL (Staphylococcus aureus [8]): 14 mm; MIC (Staphylococcus aureus [9]; MTCC 3381, 24 h): 12.5 µg/mL (≈ 51.4 µM); inhibition zone (IZ) (Aspergillus niger [12]): inactive; MIC (Aspergillus niger [16]): inactive
O=C1Oc2ccc(Cl)cc2N/C1=C\C(=O)c1ccc(C2CCCCC2)cc1	–	inactive	–	–	inactive	inactive	–	inactive	inactive	inactive	10	inactive	inactive	25 (≈ 65.5 µM)	–	–	–	–	6	100 (≈ 262 µM)	zone of inhibition at 100 µg/mL (Fusarium oxysporum [1]): 14 mm; MIC (Fusarium oxysporum [4]; ATCC 62506, 24 h): 25 µg/mL (≈ 65.5 µM); MIC (Trichoderma reesei [10]; ATCC 13631, 24 h): 25 µg/mL (≈ 65.5 µM); zone of inhibition at 100 µg/mL (Trichoderma reesei [15]): 16 mm
O=C1Oc2ccc(Cl)cc2N/C1=C\C(=O)c1cccc2ccccc12	inactive	inactive	inactive	inactive	inactive	inactive	inactive	inactive	inactive	inactive	–	inactive	inactive	–	inactive	–	–	inactive	–	–	inhibition zone (IZ) (Aspergillus niger [12]): inactive; MIC (Aspergillus niger [16]): inactive
O=C1Oc2ccc(Cl)cc2N/C1=C\C(=O)c1ccc(-c2ccccc2)cc1	inactive	–	inactive	inactive	–	inactive	inactive	inactive	inactive	inactive	8	inactive	inactive	25 (≈ 66.5 µM)	inactive	–	–	inactive	–	–	zone of inhibition at 100 µg/mL (Talaromyces funiculosus [2]): 12 mm; MIC (Talaromyces funiculosus [5]; ATCC 11797, 24 h): 25 µg/mL (≈ 66.5 µM)
O=C(N[C@H](CO)[C@H](O)c1ccc([N+](=O)[O-])cc1)C(Cl)Cl [CHLORAMPHENICOL]	–	–	–	–	–	–	–	–	–	–	–	–	–	–	–	32	6.25 (≈ 19.3 µM)	–	28	3.12 (≈ 9.67 µM)	zone of inhibition at 100 µg/mL (Bacillus subtilis [6]): 26 mm; zone of inhibition at 100 µg/mL (Staphylococcus aureus [8]): 22 mm; MIC (Staphylococcus aureus [9]; MTCC 3381, 24 h): 6.25 µg/mL (≈ 19.3 µM); MIC (Bacillus subtilis [11]; MTCC 10619, 24 h): 6.25 µg/mL (≈ 19.3 µM)
